Here are results for 13 molecules from patent US10167258B2, “Inhibitors of mitochondrial pyruvate dehydrogenase kinase isoforms 1-4 and uses thereof” (The Board of Regents of the University of Texas System, priority 2013, dated 2019).

Where two headings read alike, the source gives them in different places. Bounds are passed on as bounds.

The test system of data set [1] is Hsp90. The settings on record: literature value; cited from earlier work.
The target of data set [2] is T1, PDK4 (Homo sapiens, UniProt Q16654). The following applies: literature value; cited from earlier work.
Target sequence in this assay (Q16654 whole entry, species assumed): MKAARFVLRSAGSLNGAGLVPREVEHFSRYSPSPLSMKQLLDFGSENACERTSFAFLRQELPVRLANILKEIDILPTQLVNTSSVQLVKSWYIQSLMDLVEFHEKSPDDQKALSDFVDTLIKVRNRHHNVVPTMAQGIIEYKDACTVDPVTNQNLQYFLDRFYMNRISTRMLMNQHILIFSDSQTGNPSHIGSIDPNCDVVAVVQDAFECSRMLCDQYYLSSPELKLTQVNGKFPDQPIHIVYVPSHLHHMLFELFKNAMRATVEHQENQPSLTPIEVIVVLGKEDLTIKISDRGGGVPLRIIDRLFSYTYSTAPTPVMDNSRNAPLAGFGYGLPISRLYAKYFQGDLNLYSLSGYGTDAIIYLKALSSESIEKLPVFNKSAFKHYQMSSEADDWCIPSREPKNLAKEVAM
In data set [3] the target is T2, PDK2 (Homo sapiens, UniProt Q15119). Briefly: Isothermal titration calorimetry (ITC), binding to PDK2. Details: made in house. On the procedure:
(§1) Recombinant human PDK2 was expressed and purified as a N terminal His6-tagged SUMO fusion protein with a tobacco-etch-virus protease (TEV) cleavage site in front of the N-terminal PDK2 sequence (26), and was used directly for the activity assay and binding affinity analyses. […] The purified protein was concentrated to 35-40 mg/ml and stored at −80° C. in small aliquots. Recombinant human PDK1, PDK3 and PDK4 were expressed and purified as described previously (26).
(§2) The PDK2 or Hsp90 N-terminal domain protein was dialyzed against one liter of the dialysis buffer containing 50 mM Tris-Cl, pH 7.5, 50 mM KCl, 1 mM MgCl2, and 0.5 mM β-mercaptoethanol. […] All of the ITC data were initially analyzed by the NITPIC program (32) to construct the baseline, followed by curve-fitting in Origin 7 to obtain binding parameters.
In general terms: ITC needs no label: the signal is the heat of the interaction.

Data set [4] deals with T2, PDK2. The experiment in a line: Assay for inhibition of PDK activity, PDK2. Format: biochemical. Details: made in house. As to the method: as §1
(§3) The remaining steps were described previously (26). IC50 values were obtained by the curve fitting of inhibition isotherms using Prism 6 (GraphPad software, Inc.).

Data set [5] has as its target T1, PDK4. The experiment in a line: Assay for inhibition of PDK activity, PDK4. Format: biochemical. Details: made in house. As to the method: as §1, §3
Target sequence in this assay (Q16654 whole entry): as the sequence (Q16654 whole entry, species assumed) above
For data set [6], the target named is T3, N-terminal domain of human Hsp90 (Homo sapiens, UniProt P07900).
T3 construct: the N-terminal domain (residue 1-236) of human Hsp90; His6 (N); SUMO (N); made in house; host or cells: E. coli BL21
The experiment in a line: Isothermal titration calorimetry (ITC), binding to Hsp90 N-terminal domain. The following applies: read-out: Kd, nM for Hsp 90. As to the method: The sequence encoding the N-terminal domain was amplified and cloned into the pSUMO expression vector (Lifesensors, Malvern, Pa.). The fusion protein of His6-tagged SUMO-Hsp90 N-terminal domain was expressed in E. coli BL21 cells and purified with Ni-NTA resin (Qiagen) and on Superdex-200 column in 20 mM Tris.HCl, pH 7.5 and 500 mM NaCl.
as §2

The nature of data set [7]: Pharmacokinetic studies in mice after IP dosing. The following applies: 20 mg/kg IP, female CD-1 mice, plasma. Format: in vivo. On the procedure:
Twenty-one male C57BL/6J mice were dosed IP with 70 mg/kg PS-10, 0.2 ml/mouse formulated as 10% DMSO/20% water/70% of 25% (2-hydroxypropyl)-β-cyclodextrin for determination of PS-10 PK. Twenty-one female CD-1 mice were dosed IP with 20 mg/kg PS-8, 0.2 ml/mouse formulated as 5% ethanol and 95% of 0.1 M sodium bicarbonate pH 9.0 for determination of PS-8 PK. Animal (n=3) were sacrificed and whole blood was harvested for each time point. Plasma was processed from whole blood by centrifugation of the ACD treated blood for 10′ at 10,000 rpm in a standard centrifuge. The analytical processing of blood samples and pharmacokinetics studies using LC/MS/MS were as described previously with LC/MS/MS methods optimized for detection of PS-10 and PS-8 (33).

Data set [8] addresses T2, PDK2. The experiment in a line: biochemical. As to the method: The kinase-profiling of PS8 on 21 human protein kinases were performed at Reaction Biology Corp. (Malvern, Pa.). […] Each protein kinase was also tested against its known inhibitor as a positive control.
The selectivity of PS8 was studied by determining IC50 for the inhibition of a 21-kinase panel including PDK2. […] Except PDK4, PDK isoforms anchor to the E2/E3BP of PDC for optimal kinase activity in vivo.

For data set [9], the target named is T4, human PDK1 (Homo sapiens, UniProt Q15118).
T4 construct: made in house
The experiment in a line: Assay for inhibition of PDK activity, PDK1. Format: biochemical. As to the method: (§4) Recombinant human PDK2 was expressed and purified as a N terminal His6-tagged SUMO fusion protein with a tobacco-etch-virus protease (TEV) cleavage site in front of the N-terminal PDK2 sequence (26), and was used directly for the activity assay and binding affinity analyses. For crystallization, the protein was subjected to a TEV-protease digestion, and the untagged PDK2 protein was purified on a Superdex 200 column in 20 mM Tris-HCl (pH 8.0), 150 mM NaCl and 5 mM DTT. The purified protein was concentrated to 35-40 mg/ml and stored at −80° C. in small aliquots. Recombinant human PDK1, PDK3 and PDK4 were expressed and purified as described previously (26).
(§5) . The remaining steps were described previously (26). IC50 values were obtained by the curve fitting of inhibition isotherms using Prism 6 (GraphPad software, Inc.).

For data set [10], the target named is T5, PDK3 (Homo sapiens, UniProt Q15120). Briefly: Assay for inhibition of PDK activity, PDK3. Format: biochemical. Details: made in house. As to the method: as §4, §5
Target sequence in this assay (Q15120 whole entry): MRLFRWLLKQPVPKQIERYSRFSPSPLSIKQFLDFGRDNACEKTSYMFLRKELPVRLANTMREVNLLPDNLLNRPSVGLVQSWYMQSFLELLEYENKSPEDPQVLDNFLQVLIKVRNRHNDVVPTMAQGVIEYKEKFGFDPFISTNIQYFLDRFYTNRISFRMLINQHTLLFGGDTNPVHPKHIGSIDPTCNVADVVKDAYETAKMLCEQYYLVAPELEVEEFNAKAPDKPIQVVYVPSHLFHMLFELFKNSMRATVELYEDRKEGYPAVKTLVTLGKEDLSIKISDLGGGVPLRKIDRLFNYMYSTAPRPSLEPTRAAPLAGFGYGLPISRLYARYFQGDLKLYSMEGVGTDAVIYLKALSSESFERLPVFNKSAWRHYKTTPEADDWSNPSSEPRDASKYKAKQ
A short description of data set [11]: Half-life in vitro in hepatic S9 fractions. The following applies: data not shown. Format: in vitro ADME.
The target of data set [12] is T5, PDK3. The settings on record: literature value; read-out: IC50 (ATP-competitive inhibitor, PDK3); cited from earlier work.
Target sequence in this assay (Q15120 whole entry, species assumed): as the sequence (Q15120 whole entry) above
Data set [13] concerns PDK. The following applies: literature value; read-out: IC50 (known PDK inhibitor); cited from earlier work.
The mark [14] stands for this setting: Table 1, inhibitor 31.6 nM to 1 mM, read-out: IC50, μM for PDK2.
Where [15] appears, read: Table 1, inhibitor 31.6 nM to 1 mM, read-out: IC50, μM for PDK4.

T4 sequence (Q15118 29-436): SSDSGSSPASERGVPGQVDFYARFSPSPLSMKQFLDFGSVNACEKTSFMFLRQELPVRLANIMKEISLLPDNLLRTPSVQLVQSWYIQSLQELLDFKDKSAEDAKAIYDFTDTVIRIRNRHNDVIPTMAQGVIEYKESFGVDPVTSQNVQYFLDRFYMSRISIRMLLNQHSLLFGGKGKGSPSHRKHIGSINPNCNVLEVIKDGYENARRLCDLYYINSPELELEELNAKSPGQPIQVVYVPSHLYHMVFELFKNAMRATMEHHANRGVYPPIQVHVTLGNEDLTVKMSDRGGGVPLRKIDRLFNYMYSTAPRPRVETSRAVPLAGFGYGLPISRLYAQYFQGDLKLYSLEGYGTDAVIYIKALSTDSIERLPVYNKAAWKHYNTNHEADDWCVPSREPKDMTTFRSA

In general, IC50 refers to the concentration at which inhibition is half-maximal. `COc1ccc(-c2c(-c3ccc(O)cc3O)n[nH]c2C)cc1` [Compound M77976]: the IC50 is 4.4 µM in [1] and 648 µM in data set [2].
As a reminder, the Kd is the free concentration of one partner at which half of the binding sites on the other are occupied at equilibrium, for simple one-to-one binding. Take `O=C(c1cc(Br)c(O)cc1O)N1Cc2ccccc2C1` [PA1, (5-bromo-2,4-dihydroxyphenyl)(isoindolin-2-yl)methanone]: the dissociation constant Kd in data set [3] (ITC, read-out: Kd, nM for PDK2) is 3570 nM. Further, the concentration for half-maximal inhibition (IC50) in [4] (setting [14]) is 6.78 µM; in data set [5] (setting [15]), 1.86 µM.
Taken in the same sequence, the figures for `O=C(c1ccc(O)cc1O)N1Cc2ccccc2C1` [PA7, (2,4-dihydroxyphenyl)(isoindolin-2-yl)methanone] were 1830 nM, 5.68 µM and 1.05 µM.
As for `O=S(=O)(c1ccc(O)cc1O)N1Cc2ccccc2C1` [PS2, 4-(isoindolin-2-ylsulfonyl)benzene-1,3-diol], the Kd in [3] (ITC, read-out: Kd, nM for PDK2) was 711 nM; in data set [6] it was 50900 nM. Besides, the “shift in binding affinities in favor of PDK2 (carbonyl in PA7 to sulfonyl in PS2)” value in data set [3] (from Kd values for PDK2 and Hsp90) was 4,791 fold. For the same molecule, the IC50 was determined as 2.11 µM in data set [4] (setting [14]) and 2.2 µM in data set [5] (setting [15]).
What is called CL/F is the apparent clearance, not corrected for the fraction that reaches the circulation. The term AUC(0-t) denotes exposure summed from dosing to a finite time, without extrapolation to infinity. The term Cmax denotes the highest concentration seen after dosing. The Tmax is the time from dosing to the highest level. Regarding `O=S(=O)(c1ccc(O)cc1O)N1Cc2ccc(O)cc2C1` [PS8, 4-((5-hydroxyisoindolin-2-yl)sulfonyl)benzene-1,3-diol], in data set [7], the apparent clearance CL/F came out at 1.55 mL/min. For the same molecule, the AUC(0-t) in data set [7] (mouse) was 5170 ng·h/mL. The maximum concentration (Cmax) in data set [7] (mouse) was 7600 ng/mL. Further, in data set [7] (mouse), the Tmax was 0.167 h. In addition, the half-life was 1.55 h in data set [7] (mouse, read-out: Terminal T1/2) and > 4 h in data set [11]. Also, the Vd/F in data set [7] (mouse, read-out: Vz/F) is 0.209 L. The Kd is 426 nM in data set [3] (ITC, read-out: Kd, nM for PDK2) and 60100 nM in data set [6]. The IC50 was 0.07 µM in [8]; 2.5 ± 0.14 µM in [9] (absence of E2/E3BP core (−)); 2.14 ± 0.33 µM in data set [9] (presence of E2/E3BP core (+)); 1.07 µM in data set [4] (setting [14]); 0.71 ± 0.14 µM in data set [4] (presence of E2/E3BP core (+), read-out: IC50 for PDK2); 13.7 ± 2.08 µM in data set [10] (absence of E2/E3BP core (−)). Further, the half-inhibitory concentration (IC50) was determined as 2.55 ± 0.38 µM in [10] (presence of E2/E3BP core (+)); 1.1 µM in data set [5] (setting [15]); 0.84 ± 0.08 µM in [5] (presence of E2/E3BP core (+), read-out: IC50 for PDK4). The “IC50 of all other kinases on the panel relative to PDK2” value in data set [8] (21-kinase panel, next lowest CDK1/cyclin B) is “at least 3 orders of magnitude”.
In data set [3], `O=S(=O)(c1ccc(O)cc1O)N1Cc2ccc(NC3CCNCC3)cc2C1` [PS35] came in with a Kd of 143 nM. In addition, the 50% inhibitory concentration (IC50) in data set [4] turned out to be 0.61 µM.
For the molecule `O=S(=O)(c1ccc(O)cc1O)N1Cc2ccc(NC3CCN(CC(O)CO)CC3)cc2C1` (stereo not shown) [PS38], in [3], the affinity, expressed as Kd, was 188 nM.
For `O=C(C1C[C@@H](O)C(O)[C@H](O)C1)N1CCC(Nc2ccc3c(c2)CN(S(=O)(=O)c2ccc(O)cc2O)C3)CC1` (stereo partly shown) [PS39], in [3], the Kd turned out to be 338 nM.
Same read-out and setting: under `O=C(C1=C[C@@H](O)[C@@H](O)[C@H](O)C1)N1CCC(Nc2ccc3c(c2)CN(S(=O)(=O)c2ccc(O)cc2O)C3)CC1` [PS40] stands 403 nM.
On the same count and under the same terms, as for `O=C(O)CCCCN1CCC(Nc2ccc3c(c2)CN(S(=O)(=O)c2ccc(O)cc2O)C3)CC1` [PS41], the figure is 1400 nM; as for `O=C(O)CCCN1CCC(Nc2ccc3c(c2)CN(S(=O)(=O)c2ccc(O)cc2O)C3)CC1` [PS42], 917 nM.
On to `C[C@@H]1C[C@H]2O[C@@H]2/C=C\C=C\C(=O)Cc2c(Cl)c(O)cc(O)c2C(=O)O1` [Radicicol, radicicol, reference compound], for which the equilibrium dissociation constant (Kd) in data set [3] (ITC, read-out: Kd, nM for PDK2) worked out at 18600 nM. Moreover, the IC50 is 77.8 µM in data set [4] (setting [14]) and 230 to 400 µM in [12].
Regarding `C[C@@H]1CN(C(=O)[C@@](C)(O)C(F)(F)F)[C@@H](C)CN1C(=O)c1ccc(C#N)cc1` [compound 3, (+)-1-N-[2,5-(S,R)-dimethyl-4-N-(4-cyanobenzoyl)piperazine]-(R)-3,3,3-trifluoro-2-hydroxy-2-methylpropan-amide], the half-inhibitory concentration (IC50) in data set [13] is 0.016 µM.
